# Assays:
# [1] = Texture analysis (low-pressure compression, TA-XTplus Texture analyser); type: physicochemical; conditions: for Compressed density index, CDI: 200 mg sample, cyclic compression up to 20 steps, CDI below 15 is considered good flowability
# Description: A simple and low sample consuming method for evaluation of the packing density of powders were obtained as compression profiles under low pressures using a die and a flat-faced punch fitted on a TA-XTplus Texture analyser (Stable Micro Systems Ltd., Godalming, UK). The small amount of 200 mg of sample was compressed in a steel mould (with the rate of displacement 0.03 mm/s). Also, a cyclic procedure (similar to tapping) was performed at maximal compressive displacement 0.5 mm, then retracting, relaxation for 15 s and then repeated compressive steps (altogether up to 20 steps).
# Density at 0.2 MPa and CDI data of Neratinib maleate Form monohydrate and Neratinib maleate Form B6 (prepared according to example 12) are presented in Table 2.
# [2] = Solubility test according to European Pharmacopoeia 7.0, 5.11; type: physicochemical; conditions: for Solubility: Ph. Eur. descriptive term
# Description: Solubility test was performed according to European Pharmacopoeia 7.0, page 637, 5.11.
compound,measurement,setting,value
"CCOc1cc2ncc(C#N)c(Nc3ccc(OCc4ccccn4)c(Cl)c3)c2cc1NC(=O)/C=C/CN(C)C [Neratinib base B6, (E)-N-{4-[3-Chloro-4-(2-pyridinylmethoxy)anilino]-3-cyano-7-ethoxy-6-quinolinyl}-4-(dimethylamino) -2-butenamide]",Density at 0.2 MPa,"[1]; 200 mg sample compressed in steel mould, 0.03 mm/s, listed as crystalline form B6 of Neratinib base",higher than that of the Neratinib maleate monohydrate
same,"Compressed density index, CDI",[1]; listed as Neratinib base Form B6,10.89
same,"Compressed density index, CDI",[1]; listed as crystalline form B6 of Neratinib base,below 15
same,Solubility compared with Neratinib maleate monohydrate,"[2]; all tested conditions (pH 1.1, 4.5, 6.8), listed as Neratinib base form B6",good correlation
same,Solubility,[2]; pH = 1.1,sparingly
same,Solubility,[2]; pH = 4.5,slightly
same,Solubility,[2]; pH = 6.8,very slightly
